# Data as given in patent US11866429B2, “Heteroaryl-biphenyl amines for the treatment of PD-L1 diseases” (CHEMOCENTRYX, INC., priority 2019, dated 2024).
# pIC50: −log10 of the molar value.
# Target: human PD-L1 (Homo sapiens (Human), UniProt Q9NZQ7)
# Test: Enzyme-Linked Immunosorbent Assay (ELISA), PD-1/PD-L1 binding
# Details: plates coated with human PD-L1; Human PD-1 and biotin added; absorbance at 450 nm
# Description: 96 Well plates were coated with 1 μg/mL of human PD-L1 (obtained from R&D) in PBS overnight at 4° C. The wells were then blocked with 2% BSA in PBS (W/V) with 0.05% TWEEN-20 for 1 hour at 37° C. The plates were washed 3 times with PBS/0.05% TWEEN-20 and the compounds were serial diluted (1:5) in dilution medium and added to the ELISA plates. Human PD-1 and biotin 0.3 μg/mL (ACRO Biosystems) were added and incubated for 1 hour at 37° C. then washed 3 times with PBS/0.05% TWEEN-20. A second block was performed with 2% BSA in PBS (W/V)/0.05% TWEEN-20 for 10 min at 37° C. and the plates were washed 3 times with PBS/0.05% TWEEN-20. Streptavidin-HRP was added for 1 hour at 37° C. then the plates were washed 3 times with PBS/0.05% TWEEN-20. TMB substrate was added and reacted for 20 min at 37° C. A stop solution (2 N aqueous […]) was added. The absorbance was read at 450 nm using a micro-plate spectrophotometer.
# Chain of human PD-L1 (Q9NZQ7 19-239): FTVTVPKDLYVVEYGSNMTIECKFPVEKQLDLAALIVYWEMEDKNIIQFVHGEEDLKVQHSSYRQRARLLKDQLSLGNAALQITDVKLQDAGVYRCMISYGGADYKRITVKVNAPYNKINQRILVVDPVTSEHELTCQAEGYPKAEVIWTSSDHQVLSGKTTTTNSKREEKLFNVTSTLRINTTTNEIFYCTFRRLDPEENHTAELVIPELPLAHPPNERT
row,Compound,pIC50
1,COc1nc(-c2cccc(-c3cccc(Nc4nccc5nccnc45)c3C)c2Cl)ccc1CN1CC(C(=O)O)C1 [Compound 1.076],> 8.00
2,Cc1cc2nccnc2c(Nc2cccc(-c3cccc(-c4ccc(CNC[C@@H]5CCC(=O)N5)c(O)n4)c3Cl)c2C)n1 [Compound 1.067],6.00 to 8.00
3,COc1nc(-c2cccc(-c3cccc(Nc4nc(C)nc5cccnc45)c3C)c2Cl)ccc1CN1CC[C@@](C)(C(=O)O)C1 [Compound 1.033],> 8.00
4,COc1nc(-c2cccc(-c3cccc(Nc4nccc5nccnc45)c3Cl)c2Cl)cnc1CN1CC(C(=O)O)C1 [Compound 1.002],> 8.00
5,COc1nc(-c2cccc(-c3cccc(Nc4nc(C(F)(F)F)nc5cccnc45)c3C)c2Cl)ccc1CN1CC(C)(C(=O)O)C1 [Compound 1.069],> 8.00
6,COc1nc(-c2cccc(-c3cccc(Nc4nc(C)nc5cccnc45)c3C)c2Cl)ccc1CN1CC2(CCC(=O)N2)C1 [Compound 1.053],> 8.00
7,COc1nc(-c2cccc(-c3cccc(Nc4nc(C)nc5cccnc45)c3C)c2Cl)cnc1CNCCCO [Compound 1.006],> 8.00
8,COc1nc(-c2cccc(-c3cccc(Nc4nc(C(C)C)nc5cccnc45)c3C)c2Cl)ccc1CNC[C@@H]1CCC(=O)N1 [Compound 1.068],> 8.00
9,COc1nc(-c2cccc(-c3cccc(Nc4nccc5nccnc45)c3C)c2Cl)ccc1CN1CC(O)C1 [Compound 1.077],> 8.00

# More lines, now with the values ahead:
row,pIC50,Compound
1,> 8.00,COc1nc(-c2cccc(-c3cccc(Nc4nc(C)nc5cccnc45)c3C)c2Cl)ccc1CN1CCC(O)CC1 [Compound 1.043]
2,> 8.00,COc1nc(-c2cccc(-c3cccc(Nc4nc(C)nc5cccnc45)c3C)c2Cl)ccc1CNCC(C)(C)C(N)=O [Compound 1.015]
3,> 8.00,COc1nc(-c2cccc(-c3cccc(Nc4nc(C)nc5cccnc45)c3C)c2Cl)ccc1CNCC(C)(C)CO [Compound 1.051]
4,> 8.00,COc1nc(-c2cccc(-c3cccc(Nc4nc(C)nc5cccnc45)c3C)c2C#N)ccc1CN[C@@H]1CCOC[C@@H]1O [Compound 1.010]
5,> 8.00,COc1nc(-c2cccc(-c3cccc(Nc4nc(C)nc5cccnc45)c3Cl)c2F)ccc1CN[C@@H]1CCOC[C@@H]1O [Compound 1.009]
6,> 8.00,COc1nc(-c2cccc(-c3cccc(Nc4nc(C)nc5cccnc45)c3C)c2Cl)ccc1CNC[C@@H](O)CC(=O)O [Compound 1.035]
7,> 8.00,COc1nc(-c2cccc(-c3cccc(Nc4nc(C)nc5cccnc45)c3C)c2Cl)ccc1CNC1CNC1 [Compound 1.017]
8,> 8.00,COc1nc(-c2cccc(-c3cccc(Nc4nc(C)nc5cccnc45)c3C)c2Cl)ccc1CNCC(C)(C)C(=O)O [Compound 1.060]
9,> 8.00,COc1nc(-c2cccc(-c3cccc(Nc4nc(C)nc5cccnc45)c3C)c2Cl)ccc1CNC1CCOCC1 [Compound 1.052]
10,> 8.00,COc1nc(-c2cccc(-c3cccc(Nc4nc(C)nc5cccnc45)c3C)c2Cl)ccc1CN[C@@H]1CCOC[C@@H]1O [Compound 1.064]
11,> 8.00,COc1nc(-c2cccc(-c3cccc(Nc4nc(C)nc5cccnc45)c3C)c2Cl)ccc1CN[C@H]1CCOC[C@H]1O [Compound 1.047]
12,> 8.00,COc1nc(-c2cccc(-c3cccc(Nc4nc(C)nc5cccnc45)c3C)c2Cl)ccc1CN[C@H]1CC[C@@H]1O [Compound 1.018]
13,> 8.00,COc1nc(-c2cccc(-c3cccc(Nc4nc(C)nc5cccnc45)c3C)c2Cl)ccc1CN[C@H]1CCOC1 [Compound 1.059]
